In publication PMC9838834, “Improvement of Antialveolar echinococcosis efficacy of novel Albendazole-Bile acids Derivatives with Enhanced Oral Bioavailability” (PLOS Neglected Tropical Diseases, 2023):
Entries after “also recorded” stand apart in the source; their conditions may differ. Like-named read-outs stand apart in the source and are kept apart here.

How the values were obtained:
[1] = Wide-angle x-ray diffraction (WAXRD) of powders; format: physicochemical; conditions: powder, 2θ 5 to 35°
Method: The ABZ and ABZ-BA powders were characterized by an X’Pert3 Powder X-ray diffractometer (PANalytical, Inc. U.K.), a voltage of 40 kV, and a current of 40 mA. The samples were scanned from 2θ = 5 to 35° at a scanning speed of 1°/min, and the step size was at 0.01° 2θ [10].

[2] = Water solubility, stated in response to reviewers; format: physicochemical
Text: ABZ and ABZ-BA are both water-insoluble, so we suspended the drug in a 0.5% sodium carboxymethyl cellulose (CMC-Na) aqueous solution. This method of administration has been widely used for the oral administration of poorly soluble drugs. This method has been adopted by our research group in previous studies, and many studies have been published that use this method, including the following: […]

[3] = Systemic pharmacokinetics in SD rats (UHPLC-MS); format: in vivo, Sprague-Dawley (SD) rats; conditions: for Cmax: po, 25 mg/kg
Method: A Dionex Ultimate 3000 RSLC system (Thermofisher) combined with an Accucore aQ C18 column (150 mm×2.1 mm, 2.6 μm, Thermo fisher) was used in the sample separation process. The separation speed was set at […] for all gradients. 1 μL of injection volume and a constant temperature of (25 ± 1°C were set for the column. The eluents were A, water with 0.1% formic acid (v/v) and B, methanol; the gradient program was as follows: 0–6 min, 8–40% B; 6–8 min, 40–100% B; 8–10 min, 100% B; 10–11 min, 100–8% B; 11–13 min, 8% B.
Heated electro-spray ionization (HE-SI) was paired with a Q-Orbitrap MS in the MS analysis. The flow rate of auxiliary, sheath and sweep gas was set at 35, 10, and 1 (arbitrary unit), respectively. A full MS-ddMS^2 mode was used to perform the analysis. The damping gas in the C-trap and nitrogen was used to stabilize the spraying. Temperatures of 350°C and 320°C were set and kept for the auxiliary gas heater and capillary. Under negative mode, 3.0 kV was adopted for the spray voltage, 60 V was used for the S-lens RF level, 50 ms was used for the maximum injection time, and 3.0 ^e6 was set as the automatic gain control target. Full MS-ddMS^2 scan ranged from 150.0000 to 800.0000 m/z. Precise molecular weight […] was used for qualitative analysis, the corresponding peak area was used for quantitative analysis, and MS^2 fragments were used for further qualitative analysis.
A cross-over design was employed with male SD rats (n = 7) to evaluate in vivo pharmacokinetics. The rats were subjected to fasting for one night before each administration and were fed 4 hours after administration. ABZ was administered by gavage (25 mg/kg). Blood was collected under isoflurane anesthesia at a flow rate of 2.0 mL/min. At 0.25, 0.5, 1, 2, 2.5, 3, 4, 6, 8, 12, and 24 hours after administration, 200–500 μL blood was collected from the orbital venous plexus and centrifuged at 13000 rpm for 5 min. The upper plasma was stored at—80°C for testing.
Plasma samples were thawed at room temperature, and 100 μL was added to an equal volume of mass spectrometry grade methanol, vortexed for 1 min, and centrifuged again at 13000 rpm for 5 min. 100 μL of the supernatant were added to 100 μL of 200 ng/mL mebendazole IS solution, vortexed for 1 min, and centrifuged again at 13000 rpm for 5 min. The resulting sample was injected by UHPLC-HR-ESI-MS with an injection volume of 1 μL. The pharmacokinetic study of SD rats was performed according to the standards recommended by the "Guidelines for the Care and Use of Laboratory Animals" (Animal Laboratory Resources Institute, 1995) and was approved by the Institutional Animal Care and Use Committee of Qinghai University.

[4] = tested on: protoscolex (PSCs); assay: Detection of protoscolex mortality / survival rate in vitro (trypan blue); format: cell-based, E. multilocularis; conditions: for inhibitory effect on PSC survival rate: 7 days, ABZ 10 μg/mL, ABZ-SO 10 μg/mL, ABZ-BA 13.45, 26.9, 53.8 μg/mL, liver homogenate + 0.2% DMSO, n = 3
Text: (§1) Protoscoleces (PSCs) from E. multilocularis were collected aseptically from alveolar echinococcosis obtained from the abdominal cavity of gerbils in Qinghai Research Key Laboratory for Echinococcosis, China. The specific operation steps were as follows: (1) dissect the successfully preserved Echinococcus protoscoleces gerbil model, isolate cysts and wash the residual liver tissue and blood with sterile Penicillin-Streptomycin solution (penicillin (1500 U/ mL) + streptomycin (1000 U/ mL)). (2) Place the clean cysts in sterile glassware, cut them into a slurry, filter the original head section with sterile gauze, and rinse them with Penicillin-Streptomycin solution 3 times. (3) Slightly rotate and shake the filtrate, absorb the suspended connective tissue, impurities, inactivated PSCs, and excess Penicillin-Streptomycin solution in the upper layer, repeat several times and finally concentrate the pure PSCs into the test tube. Viability was assessed by muscular movement (evaluated under an optical microscope), the motility of flame cells, and the exclusion test with methylene blue. The PSCs were incubated in an RPMI 1640 medium containing 0.20 mg/mL liver homogenous serous, 100 U/mL penicillin, 100 μg/mL streptomycin and 10% calf serum at 37°C in a 5% CO2 atmosphere at a concentration of (1000–2000) PSCs/mL.
(§2) The PSCs were divided into blank control groups (Groups 1 and 2), positive control groups (Groups 3 and 4), and experimental groups (Groups 5 to 7). Group 1 was RPMI-1640 medium with 0.20 mg/mL liver homogenate; Group 2 was 0.2% DMSO medium with 0.2% DMSO; Group 3 was RPMI-1640 medium with 0.20 mg/mL liver homogenate and 0.2% DMSO, containing 10 μg/mL Albendazole; Group 4 was RPMI-1640 medium with 0.20 mg/mL liver homogenate and 0.2% DMSO, containing 10 μg/mL albendazole sulfoxide; Groups 5–7 were RPMI-1640 medium with 0.20 mg/mL liver homogenate and 0.2% DMSO, containing 13.45, 26.9 and 53.8 μg/mL ABZ-BA, with effective ABZ concentrations of 5, 10 and 20 μg/mL, respectively. The culture medium and drug were changed every 3 days for one week. PSCs samples (10 μL) were collected every day and stained with 0.4% trypan blue staining solution, observed under an inverted microscope, and photographed to record PSC mortality.

[5] = tested on: protoscolex (PSCs); assay: Protoscolex microstructure by optical microscope and SEM; format: cell-based, E. multilocularis; conditions: 5 days after treatment
Text: as §1, §2
For ultrastructural studies, 200 μL PSCs were taken from each group 5 days after treatment and fixed with 4% glutaraldehyde in sodium cacodylate buffer at 4°C for 72 hours. Samples were dehydrated by continuous incubation in increasing concentrations of ethanol (50–100%), and ethanol was removed by supercritical extraction. They were then sputter-coated with gold (100 Å thick) and examined on an FEI Quanta 200 scanning electron microscope operating at 20 kV.

## CCCSc1ccc2nc(NC(=O)OC)[nH]c2c1 [ABZ, Albendazole]
[1]
  physical state (WAXRD): crystalline
[2]; reason for dosing as suspension in 0.5% CMC-Na
  water solubility: water-insoluble
[3]; male, Sprague-Dawley, rat, in vivo, SD rats, oral 25mg/kg of API
  Cmax: 76.4 ± 7.62 ng/mL
[3]; male, Sprague-Dawley, rat, in vivo, SD rats, oral 25 mg/kg, n = 7, Table 2
  Cmax: 8.44 ± 3.6 ng/mL
[3]; male, Sprague-Dawley, rat, in vivo, SD rats, oral 25 mg/kg, n = 7
  Tmax: 10.9 ± 1.95 h
[3]; male, Sprague-Dawley, rat, in vivo, SD rats, oral 25 mg/kg, n = 7, Abz = ABZ content of ABZ-BA
  AUC(0-inf): 101 ± 45.9 ng·h/mL
[3]; male, Sprague-Dawley, rat, in vivo, SD rats, oral 25 mg/kg, n = 7, Abz = ABZ content of ABZ-BA, read-out: AUC(0–24)
  AUC(0-t): 91.5 ± 42.7 ng·h/mL
[3]; male, Sprague-Dawley, rat, in vivo, SD rats, oral 25 mg/kg, n = 7, read-out: MRT(0-∞)
  MRT inf: 13.9 ± 3.98 h
[3]; male, Sprague-Dawley, rat, in vivo, SD rats, oral 25 mg/kg, n = 7, read-out: MRT(0–24)
  MRT last: 11.6 ± 0.91 h
[3]; male, Sprague-Dawley, rat, in vivo, SD rats, oral 25 mg/kg, n = 7, read-out: Vz/F
  Vd/F: 1990 ± 1620 L/kg
[3]; male, Sprague-Dawley, rat, in vivo, SD rats, oral 25 mg/kg, n = 7, read-out: t1/2z (converted)
  half-life: 5.51 ± 4.27 h
[3]; male, Sprague-Dawley, rat, in vivo, SD rats, oral 25mg/kg, lower limit of detection, read-out: blood concentration after oral administration for 8 hours
  concentration at 8 h: < 1 ng/mL
[4]
  inhibitory effect on PSC survival rate: time and concentration-dependent inhibitory effects
[5]; 10 μg/mL
  PSC morphology under the SEM: elongated and curled up
  PSC morphology under the optical microscope (OM): became vacuolar and transparent
[5]; 10 μg/mL, vs blank groups
  mortality of PSCs: significantly higher than in the blank groups

## CCCSc1ccc2[nH]c(NC(=O)NCCCCOC(=O)CCC(C)C3CCC4C5C(O)CC6CC(O)CCC6(C)C5CC(O)C34C)nc2c1 (stereo not drawn) [ABZ-BA]
[1]
  physical state (WAXRD): amorphous
[2]
  water solubility: water-insoluble
[3]; SD rats, oral 25 mg/kg
  detectability in blood after oral administration for 8 hours: easily detected
[3]; rat, in vivo
  pharmacokinetic behavior compared with Albenda: superior to that of Albenda
[4]
  inhibitory effect on PSC survival rate: time and concentration-dependent inhibitory effects
[4]; in vitro
  inhibitory effect / killing ability on PSCs compared with ABZ: identical to that of ABZ; also recorded: the same as that of ABZ
[5]; ABZ-BA 13.45 μg/mL
  PSC morphology, lowest concentration: obvious shrinkage at the lowest concentration, but the suckers were still clearly visible
[5]; ABZ-BA 26.9 and 53.8 μg/mL
  PSC morphology, intermediate and high concentration: strikingly distinct from their original form, appearing in a disc state after death
